Laboratory results published in patent publication US20250145715A1, “B7-H3 TARGETING FUSION PROTEINS AND METHODS OF USE THEREOF” (GT Biopharma, Inc., priority 2021, published 2025).

Assays:
Type in all cases: cell-based, human
[1] = tested on: DU145 prostate cancer cells; test: NK cell CD107a / IFNγ flow cytometry against DU145; details: normal donor and prostate cancer patient NK cells, vs controls
Source text: FIG. 15A is a graph showing pooled analysis of proportion of NK cells from healthy donors or prostate cancer patients expressing CD107a+ (top) or IFNγ (bottom) against C4-2 targets (N=9 for healthy donors, N=3 for patients). FIG. 15B is a graph showing pooled analysis of proportion of NK cells from healthy donors or prostate cancer patients expressing CD107a+ (top) or IFNγ (bottom) against DU145 targets (N=9 for healthy donors, N=3 for patients). FIG. 15C is a graph showing pooled analysis of proportion of NK cells from healthy donors or prostate cancer patients expressing CD107a+ (top) or IFNγ (bottom) against LNCaP targets (N=9 for healthy donors, N=3 for patients). FIG. 15D is a graph showing pooled analysis of proportion of NK cells from healthy donors or prostate cancer patients expressing CD107a+ (top) or IFNγ (bottom) against PC3 targets (N=9 for healthy donors, N=3 for patients). * p<0.05, ** p<0.01, *** p<0.001, and **** p<0.0001.
ADCC was measured in a flow cytometry assay by evaluating degranulation via CD107a (lysosomal-associated membrane protein LAMP-1) and intracellular IFNγ production. Upon thawing, normal donor and patient-derived PBMCs or ascites cells were rested overnight (37° C., 5% CO2) in RPMI 1640 media supplemented with 10% fetal calf serum (RPMI-10). […] Samples were washed and evaluated in an LSRII flow cytometer (BD Biosciences, San Jose, CA, USA). […]

A549 lung cancer cells = test: NK cell CD107a / IFNγ flow cytometry against A549; details: normal donor PBMCs, vs controls
Source text: FIGS. 24A-24F illustrate that B7-H3 TriKE enhances NK cell function against lung tumor targets. FIG. 24A is a graph showing pooled analysis of proportion of NK cells from healthy donors expressing CD107a+ against A549(N=6) tumor targets. FIG. 24B is a graph showing pooled analysis of proportion of NK cells from healthy donors expressing IFNγ against A549(N=6) tumor targets. FIG. 24C is a graph showing pooled analysis of proportion of NK cells from healthy donors expressing CD107a+ against NCI-H322 (N=5) tumor targets. FIG. 24D is a graph showing pooled analysis of proportion of NK cells from healthy donors expressing IFNγ against NCI-H322 (N=5) tumor targets. FIG. 24E is a graph showing pooled proportion of NK cells from healthy donors (black bars) or lung cancer patients (white bars) expressing CD107a+ against NCI-H460 (N=7). FIG. 24F is a graph showing pooled proportion of NK cells from healthy donors (black bars) or lung cancer patients (white bars) expressing IFNγ against NCI-H460 (N=7). ** p<0.01, *** p<0.001, and **** p<0.0001.
ADCC was measured in a flow cytometry assay by evaluating degranulation via CD107a (lysosomal-associated membrane protein LAMP-1) and intracellular IFNγ production. […] Samples were washed and evaluated in an LSRII flow cytometer (BD Biosciences, San Jose, CA, USA). […]

H929 cells = test: IncuCyte Zoom NK cell killing of H929
Source text: FIGS. 8A-8D illustrate the ability of peripheral blood NK cells with or without B7-H3-TriKE to kill myeloma cells in live imaging IncuCyte Zoom assays. FIG. 8A is a graph showing the effects with effector:target (E:T) ratios of 2:1 and 4:1 on H929 cells. FIG. 8B is a graph showing the effects with effector:target (E:T) ratios of 2:1 and 4:1 on MM1S cells. FIG. 8C is a graph showing the effects with effector:target (E:T) ratios of 2:1 and 4:1 on RPMI-8226 cells. FIG. 8D is a graph showing the effects with effector:target (E:T) ratios of 2:1 and 4:1 on U266 cells.
FIGS. 9A-9D illustrate the efficacy of B7-H3-TriKE with the proteasome inhibitor bortezomib (10 nM) and the immunomodulatory drug lenalidomide (5 μM). FIG. 9A is a graph showing the effect of the combination therapy on H929 cells after 48 hours. FIG. 9B is a graph showing the effect of the combination therapy on RPMI-8226 cells after 48 hours. FIG. 9C is a graph showing the effect of the combination therapy on MM1S cells after 48 hours. FIG. 9D is a graph showing the effect of the combination therapy on U266 cells after 48 hours.
The ability of peripheral blood NK cells with or without B7-H3-TriKE to kill myeloma cells was compared in live imaging IncuCyte Zoom assays with escalating doses of TriKE. Maximal killing occurred with 3 nM concentration.
The efficacy of B7-H3-TriKE with the proteasome inhibitor bortezomib (10 nM) and the immunomodulatory drug lenalidomide (5 μM) was also tested. Cytotoxicity curves were compared by repeated measures ANOVA and performed in triplicate.

Row | Substance | NK cell IFNγ production against DU145 [1] | NK cell degranulation (CD107a) against DU145 [1] | NK cell activation against A549 (A549 lung cancer cells) | NK cell killing of H929 (H929 cells; E:T 2:1) | NK cell killing of H929 (H929 cells; E:T 4:1)
1 | cam1615B7-H3: second-generation TriKE: humanized camelid anti-CD16 VHH, human wild-type IL-15, anti-B7-H3 mAb 376.96 scFv; SEQ ID NO:1 | enhanced | enhanced | significantly and robustly improved NK cell activation |  | 
2 | B7-H3 TriKE: camelid nanobodies targeting CD16 and B7-H3 joined by IL-15 and two linkers; sequence table equates the name with cam1615B7-H3 |  |  |  | more potently killed | no difference in killing
